Experimental data from the supplement of paper PMC13380429.

Legend:
[1] = tested on: A549-ACE2; assay: drug-induced phospholipidosis relative to tamoxifen; higher = more phospholipidosis
[2] = tested on: HepG2; assay: relative viability EC50 (midpoint between 100% and the lowest measured viability); higher = less toxic; settings: 72 h
[3] = tested on: Caco-2; assay: as above; settings: 72 h
[4] = tested on: Calu-3; assay: as above; settings: 72 h
[5] = tested on: Vero E6; assay: as above; settings: 72 h
[6] = tested on: U2OS; assay: as above; settings: 72 h
[7] = tested on: A549-ACE2 infected with SARS-CoV-2; assay: cell count relative to DMSO; higher = less toxic; settings: 24 h
[8] = tested on: A549-ACE2 infected with SARS-CoV-2; assay: SARS-CoV-2 infection rate relative to DMSO; higher = more infection; settings: 24 h
[9] = tested on: HepG2; assay: cell viability relative to DMSO; higher = less toxic; settings: 72 h
[10] = tested on: Caco-2; assay: as above; settings: 72 h
[11] = tested on: Calu-3; assay: as above; settings: 72 h
[12] = tested on: Vero E6; assay: as above; settings: 72 h
[13] = tested on: U2OS; assay: as above; settings: 72 h
[14] = tested on: HepG2; assay: drug sensitivity score (DSS) for viability; higher = more toxic; extreme values may be limits of the assay; settings: 72 h
[15] = tested on: Caco-2; assay: as above; settings: 72 h
[16] = tested on: Calu-3; assay: as above; settings: 72 h
[17] = tested on: Vero E6; assay: as above; settings: 72 h
[18] = tested on: U2OS; assay: as above; settings: 72 h
[19] = tested on: A549-ACE2 infected with SARS-CoV-2; assay: morphology score (similarity to uninfected cells); higher = more like uninfected cells; settings: 24 h
[20] = tested on: A549-ACE2; assay: phospholipidosis EC50; higher = less potent phospholipidosis inducer

CC(C)C[C@H](NC(=O)CNC(=O)c1cc(Cl)ccc1Cl)B(O)O [ixazomib]
[1], 0.3 µM
Settings	drug-induced phospholipidosis [%]
24 h	-5.63
48 h	-3.87
72 h	-1.4

Settings	drug sensitivity score	relative viability EC50 [µM]
[2]	–	0.383
[3]	–	0.0588
[4]	–	0.0714
[5]	–	0.218
[6]	–	0.197
[14]	16.8	–
[15]	25.9	–
[16]	24.6	–
[17]	18.9	–
[18]	20.5	–

Settings	SARS-CoV-2 infection rate, [8] [%]	cell count, [7] [%]	cell viability, [9] [%]	cell viability, [10] [%]	cell viability, [11] [%]	cell viability, [12] [%]	cell viability, [13] [%]	morphology score, [19]
1 nM	–	–	107	86.9	90	97.4	95.9	–
10 nM	–	–	105	102	99	99.3	93.4	–
0.1 µM	99	90	–	–	–	–	–	0.03
100 nM	–	–	99.5	24.4	35.8	78.5	84.5	–
0.3 µM	98	80	–	–	–	–	–	0.25
1 µM	64	72	–	–	–	–	–	0.26
1000 nM	–	–	7.7	4.7	5.8	11.5	1.3	–
3 µM	46	59	–	–	–	–	–	0.26
10000 nM	–	–	0.6	7.3	5.7	3.7	-0.1	–

O=C(NC1CCN(CCCCC2(C(=O)NCC(F)(F)F)c3ccccc3-c3ccccc32)CC1)c1ccccc1-c1ccc(C(F)(F)F)cc1 [lomitapide]
drug-induced phospholipidosis [%], [1]
Settings	0.3 µM	0.833333 µM	3.33333 µM	6.66667 µM	10 µM	30 µM
24 h	11.9	29.7	81	81.2	40.9	49.8
48 h	15.5	36	91.1	108	–	–
72 h	12.7	28.5	83.5	131	–	–

Settings	drug sensitivity score	relative viability EC50 [µM]
[2]	–	3.14
[3]	–	3.38
[4]	–	3.61
[5]	–	2.97
[6]	–	3.46
[14]	5.6	–
[15]	4.6	–
[16]	4.9	–
[17]	5.9	–
[18]	5.1	–

Settings	SARS-CoV-2 infection rate [%]	cell count [%]	cell viability [%]	morphology score	phospholipidosis EC50 [µM]
[7], 0.1 µM	–	96	–	–	–
[7], 0.3 µM	–	104	–	–	–
[7], 1 µM	–	108	–	–	–
[7], 3 µM	–	119	–	–	–
[8], 0.1 µM	98	–	–	–	–
[8], 0.3 µM	93	–	–	–	–
[8], 1 µM	72	–	–	–	–
[8], 3 µM	12	–	–	–	–
[9], 1 nM	–	–	108	–	–
[9], 10 nM	–	–	106	–	–
[9], 100 nM	–	–	106	–	–
[9], 1000 nM	–	–	100	–	–
[9], 10000 nM	–	–	-0.5	–	–
[10], 1 nM	–	–	101	–	–
[10], 10 nM	–	–	103	–	–
[10], 100 nM	–	–	103	–	–
[10], 1000 nM	–	–	103	–	–
[10], 10000 nM	–	–	11.8	–	–
[11], 1 nM	–	–	101	–	–
[11], 10 nM	–	–	100	–	–
[11], 100 nM	–	–	98.4	–	–
[11], 1000 nM	–	–	109	–	–
[11], 10000 nM	–	–	1.2	–	–
[12], 1 nM	–	–	102	–	–
[12], 10 nM	–	–	104	–	–
[12], 100 nM	–	–	96	–	–
[12], 1000 nM	–	–	97.8	–	–
[12], 10000 nM	–	–	-0.6	–	–
[13], 1 nM	–	–	101	–	–
[13], 10 nM	–	–	110	–	–
[13], 100 nM	–	–	104	–	–
[13], 1000 nM	–	–	106	–	–
[13], 10000 nM	–	–	1.2	–	–
[19], 0.1 µM	–	–	–	-0.14	–
[19], 0.3 µM	–	–	–	0.12	–
[19], 1 µM	–	–	–	0.6	–
[19], 3 µM	–	–	–	0.91	–
[20], 24 h	–	–	–	–	0.898
[20], 48 h	–	–	–	–	1.8
[20], 72 h	–	–	–	–	2.5

CC(Cc1ccccc1)NCCC(c1ccccc1)c1ccccc1 (stereo not drawn) [prenylamine]
drug-induced phospholipidosis [%], [1]
Settings	0.3 µM	0.833333 µM	3.33333 µM	6.66667 µM	10 µM
24 h	2.14	1.61	44.8	88.2	97.4
48 h	3.35	0.12	33.5	85	103
72 h	3.19	2.37	29.7	74.3	100

Settings	drug sensitivity score	relative viability EC50 [µM]
[3]	–	> 10
[4]	–	3.51
[5]	–	> 10
[6]	–	> 10
[14]	1.3	–
[15]	0.1	–
[16]	4.1	–
[17]	0	–
[18]	0.2	–

Settings	SARS-CoV-2 infection rate [%]	cell count [%]	cell viability [%]	morphology score	phospholipidosis EC50 [µM]
[7], 0.3 µM	–	103	–	–	–
[7], 3 µM	–	119	–	–	–
[7], 10 µM	–	123	–	–	–
[7], 30 µM	–	19	–	–	–
[8], 0.3 µM	108	–	–	–	–
[8], 3 µM	47	–	–	–	–
[8], 10 µM	6	–	–	–	–
[8], 30 µM	43	–	–	–	–
[9], 1 nM	–	–	110	–	–
[9], 10 nM	–	–	110	–	–
[9], 100 nM	–	–	101	–	–
[9], 1000 nM	–	–	107	–	–
[9], 10000 nM	–	–	64.5	–	–
[10], 1 nM	–	–	112	–	–
[10], 10 nM	–	–	101	–	–
[10], 100 nM	–	–	93.6	–	–
[10], 1000 nM	–	–	100	–	–
[10], 10000 nM	–	–	87.1	–	–
[11], 1 nM	–	–	103	–	–
[11], 10 nM	–	–	106	–	–
[11], 100 nM	–	–	95.3	–	–
[11], 1000 nM	–	–	106	–	–
[11], 10000 nM	–	–	17.9	–	–
[12], 1 nM	–	–	103	–	–
[12], 10 nM	–	–	110	–	–
[12], 100 nM	–	–	102	–	–
[12], 1000 nM	–	–	102	–	–
[12], 10000 nM	–	–	89.3	–	–
[13], 1 nM	–	–	97.2	–	–
[13], 10 nM	–	–	94.7	–	–
[13], 100 nM	–	–	97.3	–	–
[13], 1000 nM	–	–	100	–	–
[13], 10000 nM	–	–	85.7	–	–
[19], 0.3 µM	–	–	–	-0.03	–
[19], 3 µM	–	–	–	0.78	–
[19], 10 µM	–	–	–	0.92	–
[19], 30 µM	–	–	–	-0.09	–
[20], 24 h	–	–	–	–	3.65
[20], 48 h	–	–	–	–	4.62
[20], 72 h	–	–	–	–	6.27
